Tests used:
crabgrass = assay: Test B pre/postemergence crabgrass; type: in vivo, Digitaria sanguinalis
In short: (§1)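 Herbicidal effect was estimated by eye on a ten-point control scale after plants spent twelve to sixteen days in a greenhouse following soil or foliar treatment. Foliar sprays targeted plants at one to four leaves; all doses were formulated in a non-phytotoxic solvent with surfactant.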

duck salad = assay: Test B flood test duck salad; type: in vivo, Heteranthera limosa
In short: (§2)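 Read-out is a visual response score from 0 (no effect) to 10 (complete control), assigned by comparison with untreated controls. Treatment was applied at the 2-leaf stage, and plants stayed in the greenhouse for twelve to sixteen days before scoring.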

bamyardgrass = assay: Test B flood test barnyardgrass; type: in vivo, Echinochloa crus-galli
In short: as §2

purple nutsedge = assay: Test B pre/postemergence purple nutsedge; type: in vivo, Cyperus rotundus
In short: as §1

[1] = Postemergence, Rate 62 g/ha, scale 0 to 10, 0 is no effect, 10 is complete control
[2] = Postemergence, Rate 250 g/ha, scale 0 to 10, 0 no effect, 10 complete control
[3] = Preemergence, Rate 62 g/ha, scale 0 to 10 (0 no effect, 10 complete control)
[4] = Preemergence, Rate 125 g/ha, scale 0 to 10 (0 no effect, 10 complete control)
[5] = Preemergence, Rate 250 g/ha, scale of 0 to 10 where 0 is no effect and 10 is complete control
[6] = Preemergence, Rate 500 g/ha, scale 0 (no effect) to 10 (complete control)
[7] = Rate 125 g/ha, Postemergence, scale 0 to 10, 0 no effect, 10 complete control
[8] = Rate 500 g/ha, Postemergence, scale 0 to 10, 0 no effect, 10 complete control
[9] = Rate 125 g/ha, Postemergence section (flood test species), scale 0 to 10, 0 no effect, 10 complete control
[10] = Rate 500 g/ha, listed under Postemergence (flood test species), scale 0 to 10, 0 no effect, 10 complete control
[11] = flood test, listed under Postemergence, Rate 250 g/ha, scale 0 to 10, 0 no effect, 10 complete control
[12] = Postemergence, Rate 125 g/ha, scale of 0 to 10 where 0 is no effect and 10 is complete control
[13] = Postemergence (flood test species), Rate 125 g/ha, scale of 0 to 10 where 0 is no effect and 10 is complete control
[14] = Postemergence, Rate 1000 g/ha, scale 0 to 10 (0 no effect, 10 complete control)
[15] = Rate 62 g/ha, Postemergence, scale of 0 to 10 where 0 is no effect and 10 is complete control
[16] = Rate 1000 g/ha, Preemergence, scale 0 to 10 (0 no effect, 10 complete control)

CCN(C(=O)n1oc(=O)n(-c2c(C)cc(C)cc2C)c1=O)C1CCCCC1 [Compound 63]
0: Crabgrass plant response rating (crabgrass; [1]) | Crabgrass plant response rating (crabgrass; [2]) | Crabgrass plant response rating (crabgrass; [3]) | Plant response rating, Crabgrass (crabgrass; [4]) | Crabgrass plant response rating (crabgrass; [7]) | Ducksalad plant response rating (duck salad; [1]) | Ducksalad plant response rating (duck salad; [9]) | Ducksalad plant response rating (duck salad; [10]) | Ducksalad plant response rating (duck salad; [11]) | Barnyardgrass plant response rating (bamyardgrass; [1]) | Barnyardgrass plant response rating (bamyardgrass; [9]) | Barnyardgrass plant response rating (bamyardgrass; [10]) | Barnyardgrass plant response rating (bamyardgrass; [11]) | Nutsedge plant response rating (purple nutsedge; [1]) | Nutsedge plant response rating (purple nutsedge; [3]) | Plant response rating, Nutsedge (purple nutsedge; [4]) | Plant response rating, Nutsedge (purple nutsedge; [5]) | Nutsedge plant response rating (purple nutsedge; [7])
1: Plant response rating, Crabgrass (crabgrass; [5])
2: Crabgrass plant response rating (crabgrass; [6]) | Crabgrass plant response rating (crabgrass; [8]) | Nutsedge plant response rating (purple nutsedge; [2]) | Nutsedge plant response rating (purple nutsedge; [8])
6: Nutsedge plant response rating (purple nutsedge; [6])

CC(C)N(C(=O)n1oc(=O)n(Cc2cccs2)c1=O)c1ccc(F)cc1 [Compound 80]
0: Ducksalad plant response rating (duck salad; [1]) | Ducksalad plant response rating (duck salad; [9]) | Ducksalad plant response rating (duck salad; [11]) | Barnyardgrass plant response rating (bamyardgrass; [1]) | Nutsedge plant response rating (purple nutsedge; [1]) | Nutsedge plant response rating (purple nutsedge; [2]) | Nutsedge plant response rating (purple nutsedge; [3]) | Plant response rating, Nutsedge (purple nutsedge; [4]) | Plant response rating, Nutsedge (purple nutsedge; [5]) | Nutsedge plant response rating (purple nutsedge; [6]) | Nutsedge plant response rating (purple nutsedge; [7]) | Nutsedge plant response rating (purple nutsedge; [8])
8: Barnyardgrass plant response rating (bamyardgrass; [11])
2: Crabgrass plant response rating (crabgrass; [1]) | Ducksalad plant response rating (duck salad; [10])
3: Crabgrass plant response rating (crabgrass; [3]) | Plant response rating, Crabgrass (crabgrass; [4]) | Barnyardgrass plant response rating (bamyardgrass; [9])
10: Plant response rating, Crabgrass (crabgrass; [5]) | Crabgrass plant response rating (crabgrass; [6])
9: Crabgrass plant response rating (crabgrass; [2]) | Crabgrass plant response rating (crabgrass; [7]) | Crabgrass plant response rating (crabgrass; [8]) | Barnyardgrass plant response rating (bamyardgrass; [10])

CCN(CC)C(=O)n1oc(=O)n(-c2cccc3c2CCCC3)c1=O [Compound 89]
0: Crabgrass plant response rating (crabgrass; [1]) | Crabgrass plant response rating (crabgrass; [12]) | Crabgrass plant response rating (crabgrass; [2]) | Crabgrass plant response rating (crabgrass; [3]) | Plant response rating, Crabgrass (crabgrass; [4]) | Plant response rating, Crabgrass (crabgrass; [5]) | Ducksalad plant response rating (duck salad; [13]) | Ducksalad plant response rating (duck salad; [1]) | Ducksalad plant response rating (duck salad; [10]) | Ducksalad plant response rating (duck salad; [11]) | Barnyardgrass plant response rating (bamyardgrass; [1]) | Barnyardgrass plant response rating (bamyardgrass; [9]) | Barnyardgrass plant response rating (bamyardgrass; [10]) | Barnyardgrass plant response rating (bamyardgrass; [11]) | Nutsedge plant response rating (purple nutsedge; [1]) | Nutsedge plant response rating (purple nutsedge; [12]) | Nutsedge plant response rating (purple nutsedge; [2]) | Nutsedge plant response rating (purple nutsedge; [3]) | Plant response rating, Nutsedge (purple nutsedge; [4]) | Plant response rating, Nutsedge (purple nutsedge; [5]) | Nutsedge plant response rating (purple nutsedge; [6]) | Nutsedge plant response rating (purple nutsedge; [8])
2: Crabgrass plant response rating (crabgrass; [6]) | Crabgrass plant response rating (crabgrass; [8])

CC(C)N(C(=O)n1oc(=O)n(C2CCCCC2C(F)(F)F)c1=O)c1ccc(F)cc1 (stereo not drawn) [Compound 99]
0: Crabgrass plant response rating (crabgrass; [15]) | Ducksalad plant response rating (duck salad; [13]) | Ducksalad plant response rating (duck salad; Rate 62 g/ha, Postemergence section, flood test species, scale of 0 to 10 where 0 is no effect and 10 is complete control) | Barnyardgrass plant response rating (bamyardgrass; [1]) | Barnyardgrass plant response rating (bamyardgrass; [9]) | Barnyardgrass plant response rating (bamyardgrass; [11]) | Nutsedge plant response rating (purple nutsedge; [12]) | Nutsedge plant response rating (purple nutsedge; [2]) | Nutsedge plant response rating (purple nutsedge; [14]) | Nutsedge plant response rating (purple nutsedge; [3]) | Plant response rating, Nutsedge (purple nutsedge; [4]) | Plant response rating, Nutsedge (purple nutsedge; [5]) | Nutsedge plant response rating (purple nutsedge; [15]) | Nutsedge plant response rating (purple nutsedge; [8])
4: Crabgrass plant response rating (crabgrass; [2])
2: Crabgrass plant response rating (crabgrass; [12]) | Ducksalad plant response rating (duck salad; [10]) | Ducksalad plant response rating (duck salad; [11])
10: Plant response rating, Crabgrass (crabgrass; [5]) | Crabgrass plant response rating (crabgrass; [6]) | Plant response rating, Crabgrass (crabgrass; [16]) | Plant response rating, Nutsedge (purple nutsedge; [16])
8: Crabgrass plant response rating (crabgrass; [14]) | Plant response rating, Crabgrass (crabgrass; [4]) | Crabgrass plant response rating (crabgrass; [8]) | Barnyardgrass plant response rating (bamyardgrass; [14])
3: Ducksalad plant response rating (duck salad; [14])
6: Nutsedge plant response rating (purple nutsedge; [6])
5: Crabgrass plant response rating (crabgrass; [3]) | Barnyardgrass plant response rating (bamyardgrass; [10])

From patent US6737383B1, “Herbicidal oxadiazolidines” (priority 1999, dated 2004)
